Assay results reported in ChEMBL document CHEMBL1139779, “3,3-diphenylpentane skeleton as a steroid skeleton substitute: novel inhibitors of human 5alpha-reductase 1” (Bioorg Med Chem Lett, 2007).

T1: 3-oxo-5-alpha-steroid 4-dehydrogenase 1 (Homo sapiens) (UniProt P18405)
T1 sequence (whole entry): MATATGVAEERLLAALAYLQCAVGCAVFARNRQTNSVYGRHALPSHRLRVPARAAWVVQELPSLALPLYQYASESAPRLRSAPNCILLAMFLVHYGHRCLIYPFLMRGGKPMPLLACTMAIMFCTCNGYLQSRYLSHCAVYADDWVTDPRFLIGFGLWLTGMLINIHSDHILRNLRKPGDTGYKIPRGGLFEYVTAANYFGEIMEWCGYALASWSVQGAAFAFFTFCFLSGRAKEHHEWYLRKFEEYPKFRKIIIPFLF

T2: 3-oxo-5-alpha-steroid 4-dehydrogenase 1 (Homo sapiens, UniProt P18405)
T2 sequence (P18405 whole entry): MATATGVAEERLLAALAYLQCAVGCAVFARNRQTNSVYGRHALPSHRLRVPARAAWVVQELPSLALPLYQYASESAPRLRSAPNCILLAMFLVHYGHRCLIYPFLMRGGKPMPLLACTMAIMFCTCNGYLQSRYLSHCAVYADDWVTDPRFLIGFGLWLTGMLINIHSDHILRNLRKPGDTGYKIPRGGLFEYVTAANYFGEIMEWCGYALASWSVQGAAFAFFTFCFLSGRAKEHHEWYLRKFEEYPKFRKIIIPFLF


Tests used:
[1] = biological target: T1, 3-oxo-5-alpha-steroid 4-dehydrogenase 1 (Homo sapiens); test: Inhibition of human 5-alpha reductase 1 expressed in LNCap cells at 1 uM; assay type: cell-based
[2] = biological target: T1, 3-oxo-5-alpha-steroid 4-dehydrogenase 1 (Homo sapiens); test: Inhibition of human 5-alpha reductase 1 expressed in LNCap cells at 10 uM; assay type: cell-based
[3] = biological target: T2, 3-oxo-5-alpha-steroid 4-dehydrogenase 1; test: Inhibition of human 5-alpha reductase 1 expressed in LNCap cells; assay type: cell-based
[4] = substrate: CCC(CC)(c1ccc(OC(=O)N(Cc2ccccc2)Cc2ccccc2)cc1)c1ccc(N(C)C(C)=O)cc1; test: Activity of 5-alpha reductase 1 at 1 uM

| Molecule | inhibition [2] [%] | other results |
| --- | --- | --- |
| CCCCN(CCCC)C(=O)Oc1ccc(C(CC)(CC)c2ccc(N(C)C(C)=O)cc2)cc1 | – | inhibition [1]: 32% |
| CCC(CC)(c1ccc(OC(=O)N2CCCCCC2)cc1)c1ccc(N(C)C(C)=O)cc1 | 70 | IC50 [3]: 4.7 µM |
| CCC(CC)(c1ccc(OC(=O)N(C)C)cc1)c1ccc(N(C)C(C)=O)cc1 | 29 | – |
| CCC(CC)(c1ccc(OC(=O)N(C(C)C)C(C)C)cc1)c1ccc(N(C)C(C)=O)cc1 | 72 | IC50 [3]: 4 µM |
| CCN(CC)C(=O)Oc1ccc(C2(c3ccc(N(C)C(C)=O)cc3)CCCC2)cc1 | 5 | – |
| CCC(CC)(c1ccc(OC(=O)N2CCCCCCC2)cc1)c1ccc(N(C)C(C)=O)cc1 | – | inhibition [1]: 20% |
| CCC(CC)(c1ccc(OC(=O)N2CCN(C)CC2)cc1)c1ccc(N(C)C(C)=O)cc1 | 17 | – |
| CCN(CC)C(=O)Oc1ccc(C(CC)(CC)c2ccc(N(C)C(C)=O)c(C)c2)cc1C | 22 | – |
| CCN(CC)C(=O)Oc1ccc(C2(c3ccc(N(C)C(C)=O)cc3)CCCCCC2)cc1 | 25 | – |
| CCC(CC)(c1ccc(OC(=O)N2CCCC2)cc1)c1ccc(N(C)C(C)=O)cc1 | 57 | – |
| CCCC(CCC)(c1ccc(OC(=O)N(CC)CC)cc1)c1ccc(N(C)C(C)=O)cc1 | 27 | – |
| CCC(CC)(c1ccc(OC(=O)N(Cc2ccccc2)Cc2ccccc2)cc1)c1ccc(N(C)C(C)=O)cc1 | – | inhibition [1]: 51%; IC50 [3]: 0.84 µM |
| CCN(CC)C(=O)Oc1ccc(C(CC)(CC)c2ccc(N(C)C(C)=O)c(C)c2)cc1 | 25 | – |
| CCN(CC)C(=O)Oc1ccc(C(C)(C)c2ccc(N(C)C(C)=O)cc2)cc1 | 16 | – |
| CCN(CC)C(=O)Oc1ccc(C2(c3ccc(N(C)C(C)=O)cc3)CCC2)cc1 | 16 | – |
| CCCN(CCC)C(=O)Oc1ccc(C(CC)(CC)c2ccc(N(C)C(C)=O)cc2)cc1 | 77 | inhibition [1]: 26%; IC50 [3]: 2.9 µM |
| CCC(CC)(c1ccc(OC(=O)N2CCCCC2)cc1)c1ccc(N(C)C(C)=O)cc1 | 68 | IC50 [3]: 4.7 µM |
| CCC(CC)(c1ccc(OC(=O)N2CCOCC2)cc1)c1ccc(N(C)C(C)=O)cc1 | 15 | – |
| CCN(CC)C(=O)Oc1ccc(C2(c3ccc(N(C)C(C)=O)cc3)CCCCC2)cc1 | 46 | – |
| CCN(CC)C(=O)Oc1ccc(C(CC)(CC)c2ccc(NC(C)=O)c(C)c2)cc1C | 17 | – |
| CCC(C)N(C(=O)Oc1ccc(C(CC)(CC)c2ccc(N(C)C(C)=O)cc2)cc1)C(C)CC (configuration not stated) | – | inhibition [1]: 22% |
| CCN(CC)C(=O)Oc1ccc(C(CC)(CC)c2ccc(N(C)C(C)=O)cc2)cc1C | 56 | – |
| CCN(CC)C(=O)Oc1ccc(C(CC)(CC)c2ccc(N(C)C(C)=O)cc2)cc1 | 65 | IC50 [3]: 9.2 µM |
| 3-oxo-5-alpha-steroid 4-dehydrogenase 1 (Homo sapiens), P18405 (protein) MATATGVAEERLLAALAYLQCAVGCAVFARNRQTNSVYGRHALPSHRLRVPARAAWVVQELPSLALPLYQYASESAPRLRSAPNCILLAMFLVHYGHRCLIYPFLMRGGKPMPLLACTMAIMFCTCNGYLQSRYLSHCAVYADDWVTDPRFLIGFGLWLTGMLINIHSDHILRNLRKPGDTGYKIPRGGLFEYVTAANYFGEIMEWCGYALASWSVQGAAFAFFTFCFLSGRAKEHHEWYLRKFEEYPKFRKIIIPFLF | – | Km [4]: 9.1 µM; Vmax [4]: 13.4 nM/h |
